From the NIST ThermoML archive (doi:10.1021/je700371w)

Conditions: Liquid, Closed cell (Static) method

Cc1cccnc1N [2-amino-3-methylpyridine]
Conditions	vapor or sublimation pressure [kPa]
328.7 K	0.098
329.84 K	0.108
336.23 K	0.165
344.13 K	0.271
349.18 K	0.368
354.89 K	0.515
357.64 K	0.598
359.93 K	0.69
363.55 K	0.82
368.61 K	1.08
374.67 K	1.47
387.23 K	2.67
390.85 K	3.13
398.46 K	4.32
405.57 K	5.82
411.35 K	7.34
415.63 K	8.67
421.5 K	10.75
425.85 K	12.61
428.75 K	13.95
431.43 K	15.29
435.66 K	17.74
439.42 K	20.12
443.51 K	23.01
447.94 K	26.5
448.95 K	27.3
450.76 K	28.88
451.84 K	29.81
454.19 K	32.09
455.25 K	33.15
456.78 K	34.61
457.95 K	36.08
460.15 K	38.48
461.72 K	40.22
469.63 K	50.38
478.22 K	63.87
484.84 K	76.42
490.45 K	87.65
495.13 K	99.74
496.05 K	101.44
497.73 K	105.38
498.8 K	108.53
499.88 K	111.35

O [water]
Conditions	vapor or sublimation pressure [kPa]
297.95 K	3.14
303.85 K	4.41
309.05 K	5.93
313.25 K	7.44
318.75 K	9.86
322.95 K	12.2
329.35 K	16.71
333.45 K	20.18
338.55 K	25.51
342.85 K	30.8
348.25 K	38.66
353.65 K	48.42
358.35 K	58.2
362.95 K	69.67
368.45 K	85.35
371.75 K	96.28
373.25 K	101.56
375.75 K	111.23
